The test system of one assay is MDA-MB-468. Briefly: In vitro inhibition of proliferation assay (WST-8), MDA-MB-468. Type of assay: cell-based. Particulars: Data Set II, experiment Oct. 8, 2010, read-out: IC50 Values [nM] after 72 hr drug treatment. Here is the method:
(§1) At day 1, the cells were seeded. The media was aspirated and the T-225 culture flasks of cells was rinsed with 30 mL PBS−/. PBS was aspirated and 6 mL of 0.25% Trypsin-EDTA was added to each flask. The flasks were incubated at 37° C., 5% CO2 for 2-5 minutes. Adherent cells were dislodged by hitting flask and trypsin was neutralized by adding 14 mL culture medium. The cell suspension was mixed and transferred to a 50 mL conical tube. The cells were spun down at 1200 rpm, 5 min, room temperature. The resultant cell pellet was resuspended in 12 mL of culture medium. The cells were counted in a hemacytometer. Cells were seeded at appropriate cell densities into 96-well flat-bottom, clear plates and incubated overnight at 37° C., 5% CO2 to allow cells to attach. Plating volume was 80 uL/well. 80 uL/well of culture medium was utilized as the “no cell” control.
(§2) Cell plating density examples include: • BT474 (high Her2)—20,000 cells/well in F12k/DMEM (50/50), 10% FBS, P/S • MDA-MB-468 (Her2 negative)-6,000 cells/well in F12k/DMEM (50/50), 10% FBS, P/S • HCC1954—5,000 cells/well in RPMI 1640, 10% FBS, P/S • SKOV-3—6,000 cells/well in RPMI 1640, 10% FBS, P/S • HT29—20,000 cells/well in McCoy's 5A, 10% FBS, P/S
(§3) At day 2, the test samples were added to the cells. […]
(§4) At day 5, proliferation readout occurred. […] The plates were measured for absorbance at OD 450 nm. […]
(In general: Tetrazolium assays rely on reduction of a dye to a coloured formazan, in cell work by metabolically active cells.)

A further assay relates to LS513. Briefly: In vitro inhibition of proliferation assay (WST-8), LS513. The format is cell-based. Particulars: Data Set I, experiment Sept. 4, 2010, read-out: IC50 Values [nM] after 72 hr drug treatment. How it is done:
as §1
(§5) At day 2, the test samples were added to the cells. The test samples were diluted in culture medium to a 9× stock concentration in Column 2 of a round-bottom 96-well plate. 3× serial dilutions were made from Column 2 to Column 11 with a multi-channel pipettor. 10 uL/well of the above samples was added in duplicate to the appropriate wells of the seeded plate. The total volume in the wells was about 90 uL/well. […]
as §4

The test system of the next assay is SKOV-3. Briefly: In vitro inhibition of proliferation assay (WST-8), SKOV-3. Type of assay: cell-based. Here is the method: as §1, §2
(§6) At day 2, the test samples were added to the cells. The test samples were diluted in culture medium to a 9× stock concentration in Column 2 of a round-bottom 96-well plate. 3× serial dilutions were made from Column 2 to Column 11 with a multi-channel pipettor. 10 uL/well of the above samples was added in duplicate to the appropriate wells of the seeded plate. The total volume in the wells was about 90 uL/well. 10 uL/well of culture medium was added to avoid edge effects for sample wells. Media Control wells were included in the inner wells where no sample was added (just 10 uL/well of culture medium) to be used in proliferation calculations. The plates were incubated at 37° C., 5% CO2 for 72 hrs.
as §4

Another assay relates to BT474. Briefly: In vitro inhibition of proliferation assay (WST-8), BT474. Type of assay: cell-based. Here is the method: as §1, §2, §6, §4
For the next assay, the system named is ZR-75-30. Briefly: In vitro inhibition of proliferation assay (WST-8), ZR-75-30. Particulars: Data Set I, experiment Sept. 4, 2010, read-out: IC50 Values [nM] after 72 hr drug treatment. The format is cell-based. How it is done: as §1, §5, §4
In the next assay the test system is MDA-MB-175. As to the kind of experiment: In vitro inhibition of proliferation assay (WST-8), MDA-MB-175. Conditions: Data Set I, experiment Sept. 13, 2010. Type of assay: cell-based. Here is the method:
as §1, §5, §4

A further assay concerns HT29. Briefly: In vitro inhibition of proliferation assay (WST-8), HT29. The format is cell-based. Conditions: Data Set II, experiment Sept. 24, 2010, read-out: IC50 Values [nM] after 72 hr drug treatment. How it is done:
as §1, §2, §3, §4

In another assay the test system is HCC1954. Briefly: In vitro inhibition of proliferation assay (WST-8), HCC1954. The format is cell-based, human. Particulars: read-out: IC50 Values [nM] after 72 hr drug treatment. How it is done:
as §1, §2, §3, §4

The test system of another assay is NCI-N87. As to the kind of experiment: In vitro inhibition of proliferation assay (WST-8), NCI-N87. Type of assay: cell-based. Conditions: Data Set I, experiment Sept. 4, 2010, read-out: IC50 Values [nM] after 72 hr drug treatment. How it is done: as §1, §5, §4
Assay [1] relates to HCC1954 (human breast carcinoma) xenograft. As to the kind of experiment: In vivo anti-tumor efficacy in HCC1954 xenograft, SCID-bg mice. Conditions: 25 mg/kg iv qod × 5; day 28; HCC1954 study.
Procedure: HCC1954 (human breast carcinoma) cells were obtained from American Type Culture Collection (Manassas, VA) and cultured in RPMI+10% FBS, 37° C., 5% CO2 until 80% confluent. Cells were harvested by trypsinization and suspended in PBS at 1×10^8 cells/mL.
Female, SCID-beige mice, 5-8 weeks old, were obtained from Charles River Laboratories. HCC1954 cells (human, breast carcinoma, ATCC, #CRL-2338) were mixed 1:1 with Matrigel (BD Biosciences, Bedford MA) and injected subcutaneously into the mice. When tumors reached an average size of 100-200 mm^3, mice were sorted into groups of 9-10 mice each. Caliper measurements were taken twice weekly until the end of the study. To estimate tumor volume, two orthogonal diameters were measured with calipers and the values entered into the formula, (L×W×W)/2=V, (where W=the shortest diameter, L=the longest diameter and V-volume), to obtain an estimated volume. The tumor volume was converted to tumor weight in the Excel data file by assuming 1 mm^3=1 mg. Endpoint was based on a study design of tumor growth inhibition (TGI). When the mean tumor volume of the control group reached approx. 1,000 mm^3 all mice were euthanized or day 28, whichever came first. […]
HCC1954 cells were utilized for this study with 10 cells/mouse in Matrigel, SC in the right flank. […] Tumor volume was monitored until the endpoint was reached (1,000 mm^3 or 60 days). […]
Setting [2] is: Data Set I, experiment Sept. 4, 2010, read-out: IC50 Values [nM] after 72 hr drug treatment.
The mark [3] stands for this setting: Data Set I, experiment Sept. 13, 2010, read-out: IC50 Values [nM] after 72 hr drug treatment.

Like-named read-outs stand apart in the source and are kept apart here.

Usually IC50 stands for the concentration that inhibits the measured activity by half. As for Dolastatin, the IC50 was under 0.01 nM with MDA-MB-468; 0.2 nM in the assay with LS513; 0.2 nM in the assay with SKOV-3 (setting [2]); 0.1 nM in the assay with SKOV-3 (setting [3]); 0.2 nM in the assay with SKOV-3 (Data Set II, experiment Oct. 8, 2010, read-out: IC50 Values [nM] after 72 hr drug treatment); 0.1 nM with BT474 (setting [2]). In addition, the IC50 in the assay on BT474 (setting [3]) was 0.1 nM; in the assay with BT474 (Data Set II, experiment Sept. 24, 2010, read-out: IC50 Values [nM] after 72 hr drug treatment), 2.5 nM; with ZR-75-30, over 30 nM; in the assay on HT29, 4 nM; in the assay on HCC1954 (HCC1954, Data Set I, experiment Sept. 4, 2010), 0.06 nM; with HCC1954 (HCCI954, Data Set II, experiment Oct. 8, 2010), 0.04 nM. In the assay with NCI-N87, the IC50 is over 30 nM. Also, in the assay on MDA-MB-175, the “IC50 Values [nM] after 72 hr drug treatment” value is recorded as “no fit”.

Consider `CC(=O)O[C@H]1C(=O)[C@@]2(C)[C@H]([C@H](OC(=O)c3ccccc3)[C@]3(O)C[C@H](OC(=O)[C@H](O)[C@@H](NC(=O)c4ccccc4)c4ccccc4)C(C)=C1C3(C)C)[C@]1(OC(C)=O)CO[C@@H]1C[C@@H]2O` [paclitaxel], for which, in assay [1], the “Median Tumor Volume (mm3)” value stood at 18 mm3 and the “T/C (Treated/Control)” value was found to be 0.037.

The values above are taken from patent publication US12622944B2, “Compositions containing, methods involving, and uses of non-natural amino acid linked dolastatin derivatives” (priority 2011, dated 2026).
